{
  "source": "patent US20200338051A1",
  "about": "“NON-CLINICAL LIQUID FORMULATIONS OF PAN-JAK INHIBITOR” (Janssen Pharmaceutica NV, priority 2019, published 2020)",
  "origin": "cited, not measured here",
  "key": {"phosphorylation of STAT4": {"test_system": "phosphorylation of STAT4", "conditions": "PBMC, INF-α stimulus"}, "phosphorylation of STAT5 [1]": {"test_system": "phosphorylation of STAT5", "conditions": "PBMC, IL-2 stimulus"}, "phosphorylation of STAT5 [2]": {"test_system": "phosphorylation of STAT5", "conditions": "PBMC, GM-CSF stimulus"}, "JAK3": {"target": "T1, JAK3 (Homo sapiens, UniProt P52333)", "T1 sequence (P52333 1-1124)": "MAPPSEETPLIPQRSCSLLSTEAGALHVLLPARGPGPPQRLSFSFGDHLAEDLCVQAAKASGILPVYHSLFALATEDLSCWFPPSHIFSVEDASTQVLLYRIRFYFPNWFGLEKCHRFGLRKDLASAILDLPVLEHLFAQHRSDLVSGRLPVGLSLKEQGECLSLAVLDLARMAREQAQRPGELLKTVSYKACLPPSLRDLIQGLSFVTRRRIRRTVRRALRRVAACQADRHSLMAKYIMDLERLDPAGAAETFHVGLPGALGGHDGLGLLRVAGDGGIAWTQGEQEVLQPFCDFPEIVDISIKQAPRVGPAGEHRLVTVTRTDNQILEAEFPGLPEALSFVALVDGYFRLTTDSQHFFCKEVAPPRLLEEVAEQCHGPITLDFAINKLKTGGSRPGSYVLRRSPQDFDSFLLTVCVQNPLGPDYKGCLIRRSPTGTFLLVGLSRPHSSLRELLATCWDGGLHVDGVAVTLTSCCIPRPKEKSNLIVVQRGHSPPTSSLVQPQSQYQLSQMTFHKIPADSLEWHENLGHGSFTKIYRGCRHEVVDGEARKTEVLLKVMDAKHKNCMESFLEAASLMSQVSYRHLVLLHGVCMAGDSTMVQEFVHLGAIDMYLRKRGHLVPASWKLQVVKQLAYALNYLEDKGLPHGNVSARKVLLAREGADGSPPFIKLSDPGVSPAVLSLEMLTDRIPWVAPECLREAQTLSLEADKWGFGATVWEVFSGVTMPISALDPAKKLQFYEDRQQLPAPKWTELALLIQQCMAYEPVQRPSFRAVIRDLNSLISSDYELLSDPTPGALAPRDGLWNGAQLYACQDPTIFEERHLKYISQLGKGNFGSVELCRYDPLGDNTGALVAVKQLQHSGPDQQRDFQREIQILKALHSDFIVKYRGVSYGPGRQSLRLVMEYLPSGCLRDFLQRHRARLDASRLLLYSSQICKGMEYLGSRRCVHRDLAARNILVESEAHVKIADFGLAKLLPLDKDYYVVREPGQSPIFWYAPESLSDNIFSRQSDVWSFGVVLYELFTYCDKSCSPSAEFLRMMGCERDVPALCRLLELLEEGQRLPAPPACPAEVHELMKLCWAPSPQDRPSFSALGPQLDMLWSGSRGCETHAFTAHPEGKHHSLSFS", "conditions": "in vitro"}, "TYK2": {"target": "TYK2 (Homo sapiens, UniProt P29597)", "sequence (P29597 whole entry, species assumed)": "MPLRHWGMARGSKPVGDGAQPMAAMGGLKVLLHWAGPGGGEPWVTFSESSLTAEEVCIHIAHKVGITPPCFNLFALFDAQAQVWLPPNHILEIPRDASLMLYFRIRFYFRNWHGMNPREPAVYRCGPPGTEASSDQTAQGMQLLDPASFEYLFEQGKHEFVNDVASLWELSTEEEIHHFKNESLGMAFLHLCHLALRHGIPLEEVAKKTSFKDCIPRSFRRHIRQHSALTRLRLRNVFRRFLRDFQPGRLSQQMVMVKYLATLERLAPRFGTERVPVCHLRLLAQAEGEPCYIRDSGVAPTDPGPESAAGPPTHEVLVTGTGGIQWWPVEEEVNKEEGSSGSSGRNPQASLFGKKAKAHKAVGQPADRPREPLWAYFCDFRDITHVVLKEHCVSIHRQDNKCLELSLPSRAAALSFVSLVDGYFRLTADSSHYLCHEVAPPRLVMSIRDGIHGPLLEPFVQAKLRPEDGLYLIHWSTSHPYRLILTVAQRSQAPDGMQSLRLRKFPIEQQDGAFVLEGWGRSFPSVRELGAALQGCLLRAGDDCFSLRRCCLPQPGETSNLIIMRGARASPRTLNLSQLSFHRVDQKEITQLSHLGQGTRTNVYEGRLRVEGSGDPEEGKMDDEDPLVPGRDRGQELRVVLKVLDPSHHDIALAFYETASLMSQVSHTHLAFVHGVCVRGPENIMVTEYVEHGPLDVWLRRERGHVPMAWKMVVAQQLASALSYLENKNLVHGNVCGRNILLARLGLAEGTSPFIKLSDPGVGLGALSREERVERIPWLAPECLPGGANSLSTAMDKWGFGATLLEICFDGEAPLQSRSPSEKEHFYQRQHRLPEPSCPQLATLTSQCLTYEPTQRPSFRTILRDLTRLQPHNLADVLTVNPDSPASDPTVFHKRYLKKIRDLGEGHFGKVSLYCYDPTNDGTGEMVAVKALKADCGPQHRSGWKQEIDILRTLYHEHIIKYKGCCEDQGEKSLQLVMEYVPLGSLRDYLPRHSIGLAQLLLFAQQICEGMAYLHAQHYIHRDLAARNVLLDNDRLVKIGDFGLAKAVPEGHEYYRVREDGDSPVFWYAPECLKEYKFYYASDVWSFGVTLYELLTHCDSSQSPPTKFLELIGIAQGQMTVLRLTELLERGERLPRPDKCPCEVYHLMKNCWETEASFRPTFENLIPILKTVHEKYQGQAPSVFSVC", "conditions": "in vitro"}, "JAK1": {"target": "JAK1 (Homo sapiens, UniProt P23458)", "sequence (P23458 whole entry, species assumed)": "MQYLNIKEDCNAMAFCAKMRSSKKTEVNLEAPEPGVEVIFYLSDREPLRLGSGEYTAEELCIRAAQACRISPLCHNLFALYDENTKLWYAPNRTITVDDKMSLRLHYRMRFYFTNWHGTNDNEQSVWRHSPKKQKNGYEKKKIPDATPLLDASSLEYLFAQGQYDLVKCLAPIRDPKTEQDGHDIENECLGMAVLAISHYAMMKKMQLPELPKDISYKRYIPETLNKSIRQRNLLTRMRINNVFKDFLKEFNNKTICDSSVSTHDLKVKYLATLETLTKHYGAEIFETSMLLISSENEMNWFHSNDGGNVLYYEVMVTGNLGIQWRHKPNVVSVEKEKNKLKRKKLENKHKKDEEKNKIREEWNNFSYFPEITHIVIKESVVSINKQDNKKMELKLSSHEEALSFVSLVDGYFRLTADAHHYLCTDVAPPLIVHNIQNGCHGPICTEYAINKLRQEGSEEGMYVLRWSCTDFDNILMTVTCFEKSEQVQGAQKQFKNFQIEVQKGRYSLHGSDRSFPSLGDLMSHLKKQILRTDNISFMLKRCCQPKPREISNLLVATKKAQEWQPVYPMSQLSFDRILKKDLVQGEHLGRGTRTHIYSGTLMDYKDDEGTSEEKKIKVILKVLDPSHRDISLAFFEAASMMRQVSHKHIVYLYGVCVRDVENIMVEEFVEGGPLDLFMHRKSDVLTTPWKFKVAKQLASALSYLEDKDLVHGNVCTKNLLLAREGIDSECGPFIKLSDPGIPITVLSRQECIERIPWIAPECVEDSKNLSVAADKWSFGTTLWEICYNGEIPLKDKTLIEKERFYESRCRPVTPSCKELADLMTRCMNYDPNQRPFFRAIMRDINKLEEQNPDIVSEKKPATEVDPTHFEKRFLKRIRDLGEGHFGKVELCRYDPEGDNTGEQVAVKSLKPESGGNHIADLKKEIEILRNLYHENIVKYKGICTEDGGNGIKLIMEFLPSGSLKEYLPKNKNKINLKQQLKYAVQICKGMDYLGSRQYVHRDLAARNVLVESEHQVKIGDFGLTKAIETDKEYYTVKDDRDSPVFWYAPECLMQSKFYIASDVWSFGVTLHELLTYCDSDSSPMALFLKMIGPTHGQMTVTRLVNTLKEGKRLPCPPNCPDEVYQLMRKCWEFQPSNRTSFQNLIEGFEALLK", "conditions": "in vitro"}, "JAK2": {"target": "JAK2 (Homo sapiens, UniProt O60674)", "sequence (O60674 whole entry, species assumed)": "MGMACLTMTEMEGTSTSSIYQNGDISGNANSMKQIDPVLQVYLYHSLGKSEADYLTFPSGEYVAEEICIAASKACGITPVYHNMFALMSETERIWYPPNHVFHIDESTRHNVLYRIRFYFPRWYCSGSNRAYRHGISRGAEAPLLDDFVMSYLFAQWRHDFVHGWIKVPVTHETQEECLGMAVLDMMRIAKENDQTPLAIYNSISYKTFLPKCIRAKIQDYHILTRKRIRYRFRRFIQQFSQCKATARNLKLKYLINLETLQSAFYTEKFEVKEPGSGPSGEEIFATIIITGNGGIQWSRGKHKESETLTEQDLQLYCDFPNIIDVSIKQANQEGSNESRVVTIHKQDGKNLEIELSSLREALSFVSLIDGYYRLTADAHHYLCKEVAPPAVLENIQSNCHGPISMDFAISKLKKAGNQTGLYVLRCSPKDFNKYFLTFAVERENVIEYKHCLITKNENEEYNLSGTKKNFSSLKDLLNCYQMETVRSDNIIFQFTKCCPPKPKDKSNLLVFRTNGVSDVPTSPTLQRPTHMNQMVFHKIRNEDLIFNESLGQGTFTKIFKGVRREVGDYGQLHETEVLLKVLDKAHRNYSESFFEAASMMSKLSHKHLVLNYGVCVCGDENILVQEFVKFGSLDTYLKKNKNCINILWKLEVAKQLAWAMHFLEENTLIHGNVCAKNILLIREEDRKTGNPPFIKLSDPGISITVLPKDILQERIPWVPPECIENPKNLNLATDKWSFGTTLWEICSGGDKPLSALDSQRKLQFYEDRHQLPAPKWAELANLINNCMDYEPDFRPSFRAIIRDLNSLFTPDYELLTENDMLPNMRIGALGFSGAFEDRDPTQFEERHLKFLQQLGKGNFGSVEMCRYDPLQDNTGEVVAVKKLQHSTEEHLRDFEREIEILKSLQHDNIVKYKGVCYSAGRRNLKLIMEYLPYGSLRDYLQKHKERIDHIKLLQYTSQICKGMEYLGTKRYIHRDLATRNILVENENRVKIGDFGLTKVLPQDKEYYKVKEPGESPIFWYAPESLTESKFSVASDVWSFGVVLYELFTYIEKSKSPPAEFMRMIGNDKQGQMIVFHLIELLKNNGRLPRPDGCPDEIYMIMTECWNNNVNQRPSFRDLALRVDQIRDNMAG", "conditions": "in vitro"}},
  "note": "Read-outs that look alike come from different tables or passages of the source.",
  "data": [
    {"smiles": "CC(C)(O)CNC(=O)Cc1nc2cnc3[nH]ccc3c2n1[C@H]1CC[C@H](CC#N)CC1", "note": "[drug substance, 2-(1-((1r,4r)-4-(cyanomethyl)cyclohexyl)-1,6-dihydroimidazo[4,5-d]pyrrolo[2,3-b]pyridin-2-yl)-N-(2-hydroxy-2-methylpropyl)acetamide]", "values": [
      {"measurement": "Inhibition of phosphorylation of STAT4", "setting": "phosphorylation of STAT4", "value": "showed cellular activity"},
      {"measurement": "Inhibition of phosphorylation of STAT5", "setting": "phosphorylation of STAT5 [1]", "value": "showed cellular activity"},
      {"measurement": "Inhibition of phosphorylation of STAT5", "setting": "phosphorylation of STAT5 [2]", "value": "showed cellular activity"},
      {"measurement": "Enzymatic activity at JAK3", "setting": "JAK3", "value": "potent enzymatic activity"},
      {"measurement": "Enzymatic activity at TYK2", "setting": "TYK2", "value": "potent enzymatic activity"},
      {"measurement": "Enzymatic activity at JAK1", "setting": "JAK1", "value": "potent enzymatic activity"},
      {"measurement": "Enzymatic activity at JAK2", "setting": "JAK2", "value": "potent enzymatic activity"},
      {"measurement": "Systemic exposure", "setting": "in vivo", "value": "low systemic exposure"},
      {"measurement": "Concentrations in the colon versus plasma", "setting": "intra-colonic dosing", "value": "much higher than those in the plasma"},
      {"measurement": "Concentrations in the colon versus plasma", "setting": "oral dosing", "value": "much higher than those in the plasma"}
    ]}
  ]
}
